In patent publication US20240400584A1, “COMPOUNDS AND METHODS FOR MODULATING SPLICING” (REMIX THERAPEUTICS INC., priority 2021, published 2024):
Read-outs that look alike come from different tables or passages of the source.

Experiments:
MYB = test: RT-qPCR splicing assay, MYB AJ/CJ mRNA; assay type: cell-based; settings: Homo sapiens, A673 or K562 cells, 24 hours; for IC50: decrease in canonical junction mRNA; for AC50: increase in alternative junction mRNA
Outline: (§1)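 Cells: A673 (DMEM/10% FBS) or K562 (IMDM/10% FBS). Dosing: 11-pt 3-fold, top 10 uM final, DMSO ≤0.25%, 24 h, 37° C. Readout: one-step RT-qPCR on lysate, CJ vs AJ isoforms; ΔCt vs housekeeper, ΔΔCt vs DMSO, 2^(−ΔΔCt) RQ → % response.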

HTT [1] = test: RT-qPCR splicing assay, HTT AJ/CJ mRNA; assay type: cell-based, human; settings: A673 or K562 cells; for AC50: increase in alternative junction mRNA; for IC50: decrease in canonical junction mRNA
Outline: as §1

Target C = test: Gene panel canonical junction qPCR assay, Target C CJ mRNA (Table 7); assay type: cell-based, human; settings: read-out: Target C CJ mRNA decrease IC50
Outline: (§2)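 A673 or K562 cells treated with compound; canonical exon-junction mRNA measured by RT-qPCR with junction-spanning primers/probe, normalised to GAPDH, GUSB or PPIA and DMSO (ΔΔCt, RQ). Percentage response set from fixed ΔCt assay windows, fitted to a 4-parameter logistic; IC50 is concentration giving 50% CJ decrease.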

HTT [2] = test: Gene panel canonical junction qPCR assay, HTT CJ mRNA (Table 7); assay type: cell-based, human; settings: read-out: HTT CJ mRNA decrease IC50
Outline: as §2

SMN2 = test: Gene panel canonical junction qPCR assay, SMN2 CJ mRNA (Table 7); assay type: cell-based; settings: Homo sapiens, read-out: SMN2 CJ mRNA decrease IC50
Outline: as §2

Work on `C[C@@H]1C[C@H](N(C)c2ccc3c(c2)OCc2cc(-c4cn[nH]c4)ccc2-3)CCN1` [Compound 101] yielded an IC50 (MYB) of over 10 µM, an AC50 (MYB) of 1 to 10 µM and an AC50 (HTT [1]; Homo sapiens, 24 h) of over 10 µM. For the same compound, the IC50 (Target C; Homo sapiens) was over 10 µM.

With `C[C@H]1C[C@H](N(C)c2ccc3c(c2)OCc2cc(-c4cn[nH]c4)ccc2-3)CCN1` [Compound 102] the IC50 (MYB) was over 10 µM, the AC50 (MYB) was 1 to 10 µM and the IC50 (HTT [1]; Homo sapiens, 24 h) was over 10 µM. It also gave an AC50 (HTT [1]; Homo sapiens, 24 h) of over 10 µM, an IC50 (Target C; Homo sapiens) of over 10 µM and an IC50 (HTT [2]; Homo sapiens) of over 10 µM.

`CN(c1ccc2c(c1)OCc1cc(-c3cn[nH]c3)ccc1-2)[C@@H]1C[C@H]2CC[C@@H](C1)N2` [Compound 104] gave an IC50 (MYB) of over 10 µM, an AC50 (MYB) of over 10 µM and an IC50 (HTT [1]; Homo sapiens, 24 h) of over 10 µM. The AC50 (HTT [1]; Homo sapiens, 24 h) was over 10 µM, the IC50 (Target C; Homo sapiens) was over 10 µM and the IC50 (HTT [2]; Homo sapiens) was over 10 µM.

`CN(c1ccc2c(c1)OCc1cc(-n3cccn3)ccc1-2)[C@@H]1C[C@H]2CC[C@@H](C1)N2` [Compound 105] was tested, and the IC50 (MYB) was over 10 µM, the AC50 (MYB) was over 10 µM and the IC50 (SMN2) was over 10 µM. It also gave an IC50 (HTT [1]; Homo sapiens, 24 hours) of over 10 µM, an AC50 (HTT [1]; Homo sapiens, 24 hours) of over 10 µM and an IC50 (HTT [2]; Homo sapiens) of over 10 µM.

`CN(c1ccc2c(n1)OCc1cc(-c3cn[nH]c3)ccc1-2)[C@@H]1C[C@H]2CC[C@@H](C1)N2` [Compound 108] showed an IC50 (MYB) of 0.1 to 1 µM, an AC50 (MYB) of 1 to 10 µM and an IC50 (SMN2) of under 0.1 µM. The IC50 (HTT [1]; Homo sapiens, 24 h) was under 0.1 µM, the AC50 (HTT [1]; Homo sapiens, 24 h) was under 0.1 µM and the IC50 (Target C; Homo sapiens) was under 0.1 µM. For the same compound, the IC50 (HTT [2]; Homo sapiens) was under 0.1 µM.

`CN(c1ccc2c(c1)CCOc1cc(-n3cccn3)ccc1-2)[C@@H]1C[C@H]2CC[C@@H](C1)N2` [Compound 113] showed an IC50 (MYB) of over 10 µM, an AC50 (MYB) of over 10 µM and an IC50 (SMN2) of over 10 µM. It also gave an IC50 (HTT [1]; Homo sapiens, 24 h) of over 10 µM, an AC50 (HTT [1]; Homo sapiens, 24 h) of over 10 µM and an IC50 (Target C; Homo sapiens) of over 10 µM. It also gave an IC50 (HTT [2]; Homo sapiens) of over 10 µM.

`CN(c1ccc2c(n1)OCc1cc(-c3cn[nH]c3)ccc1-2)C1CCNCC1` [Compound 116] gave an IC50 (MYB) of 1 to 10 µM, an AC50 (MYB) of 1 to 10 µM and an IC50 (SMN2) of 0.1 to 1 µM. It also gave an IC50 (HTT [1]; Homo sapiens, 24 h) of 0.1 to 1 µM, an AC50 (HTT [1]; Homo sapiens, 24 h) of 1 to 10 µM and an IC50 (Target C; Homo sapiens) of 0.1 to 1 µM. It also gave an IC50 (HTT [2]; Homo sapiens) of 0.1 to 1 µM.

Compound `CN(c1ccc2c(c1)COc1cc(-n3cccn3)ccc1-2)C1CC(C)(C)NC(C)(C)C1` [Compound 117] has an IC50 (MYB) of 1 to 10 µM, an AC50 (MYB) of over 10 µM and an IC50 (SMN2) of over 10 µM. It also gave an IC50 (HTT [1]; Homo sapiens, 24 h) of over 10 µM, an AC50 (HTT [1]; Homo sapiens, 24 h) of over 10 µM and an IC50 (HTT [2]; Homo sapiens) of over 10 µM.

In the case of `CC1(C)CC(Nc2ccc3c(c2)COc2cc(-n4cccn4)ccc2-3)CC(C)(C)N1` [Compound 118], the IC50 (MYB) is reported as over 10 µM, the AC50 (MYB) is reported as over 10 µM and the IC50 (SMN2) is reported as over 10 µM. For the same compound, the IC50 (HTT [1]; Homo sapiens, 24 h) was over 10 µM, the AC50 (HTT [1]; Homo sapiens, 24 h) was over 10 µM and the IC50 (HTT [2]; Homo sapiens) was over 10 µM.

Compound `CN(c1ccc2c(n1)COc1cc(-c3cn[nH]c3)ccc1-2)[C@@H]1C[C@H]2CC[C@@H](C1)N2` [Compound 121] has an IC50 (MYB) of 1 to 10 µM, an AC50 (MYB) of 1 to 10 µM and an IC50 (SMN2) of 0.1 to 1 µM. The IC50 (HTT [1]; Homo sapiens, 24 h) was 0.1 to 1 µM, the AC50 (HTT [1]; Homo sapiens, 24 h) was 0.1 to 1 µM and the IC50 (Target C; Homo sapiens) was 0.1 to 1 µM. It also gave an IC50 (HTT [2]; Homo sapiens) of 0.1 to 1 µM.

Work on `CN(c1ccc2c(n1)COc1cc(-n3cccn3)ccc1-2)[C@@H]1C[C@H]2CC[C@@H](C1)N2` [Compound 124] yielded an IC50 (MYB) of 1 to 10 µM, an AC50 (MYB) of over 10 µM and an IC50 (SMN2) of 1 to 10 µM. It also gave an IC50 (HTT [1]; 24 hours) of 1 to 10 µM, an AC50 (HTT [1]; 24 hours) of 1 to 10 µM and an IC50 (Target C; Homo sapiens) of 1 to 10 µM. It also gave an IC50 (HTT [2]; Homo sapiens) of 1 to 10 µM.

`CN(c1ccc2c(n1)COc1cc(-n3cccn3)ccc1-2)C1CC(C)(C)NC(C)(C)C1` [Compound 125] showed an IC50 (MYB) of over 10 µM, an AC50 (MYB) of over 10 µM and an IC50 (SMN2) of over 10 µM. For the same compound, the IC50 (HTT [1]; Homo sapiens, 24 h) was over 10 µM, the AC50 (HTT [1]; Homo sapiens, 24 h) was over 10 µM and the IC50 (Target C; Homo sapiens) was over 10 µM. It also gave an IC50 (HTT [2]; Homo sapiens) of over 10 µM.

Compound `CN(c1ccc2c(n1)CCOc1cc(-n3cccn3)ccc1-2)C1CC(C)(C)NC(C)(C)C1` [Compound 129] has an IC50 (MYB) of over 10 µM, an AC50 (MYB) of over 10 µM and an IC50 (SMN2) of over 10 µM. For the same compound, the IC50 (HTT [1]; Homo sapiens, 24 h) was over 10 µM, the AC50 (HTT [1]; Homo sapiens, 24 h) was over 10 µM and the IC50 (Target C; Homo sapiens) was over 10 µM. It also gave an IC50 (HTT [2]; Homo sapiens) of over 10 µM.

In the case of `CC1(C)CC(Nc2ccc3c(n2)COc2cc(-n4cccn4)ccc2-3)CC(C)(C)N1` [Compound 134], the IC50 (MYB) is reported as 1 to 10 µM, the AC50 (MYB) is reported as over 10 µM and the IC50 (SMN2) is reported as 1 to 10 µM. The IC50 (HTT [1]; Homo sapiens, 24 h) was 1 to 10 µM, the AC50 (HTT [1]; Homo sapiens, 24 h) was 1 to 10 µM and the IC50 (Target C; Homo sapiens) was under 0.1 µM. It also gave an IC50 (HTT [2]; Homo sapiens) of 1 to 10 µM.

In the case of `CN(c1cnc2c(n1)OCc1cc(-c3cn[nH]c3)ccc1-2)C1CC(C)(C)NC(C)(C)C1` [Compound 142], the IC50 (MYB) is reported as 0.1 to 1 µM, the AC50 (MYB) is reported as 1 to 10 µM and the IC50 (SMN2) is reported as 0.1 to 1 µM. For the same compound, the IC50 (HTT [1]; 24 hours) was 0.1 to 1 µM, the AC50 (HTT [1]; 24 hours) was 0.1 to 1 µM and the IC50 (Target C) was 1 to 10 µM. It also gave an IC50 (HTT [2]) of 0.1 to 1 µM.

In the case of `c1cc2c(cc1-c1cn[nH]c1)COc1nc(N[C@@H]3C[C@H]4CC[C@@H](C3)N4)cnc1-2` [Compound 143], the IC50 (MYB) is reported as 0.1 to 1 µM, the AC50 (MYB) is reported as 1 to 10 µM and the IC50 (SMN2) is reported as 0.1 to 1 µM. For the same compound, the IC50 (HTT [1]; Homo sapiens, 24 h) was 0.1 to 1 µM, the AC50 (HTT [1]; Homo sapiens, 24 h) was 0.1 to 1 µM and the IC50 (Target C; Homo sapiens) was 0.1 to 1 µM. The IC50 (HTT [2]; Homo sapiens) was 0.1 to 1 µM.
